Source: patent US20220249431A1, “ANTIMYCOTIC” (Karl-Franzens-Universität Graz, priority 2019, published 2022)
≈ marks a conversion by molar mass, not a printed value. Where two headings read alike, the source gives them in different places. One block for each molecule: values may come before it.

Experiments:
C. glabrata = test: Minimal inhibitory concentration, planktonic cells (CLSI M27); assay type: cell-based, Candida glabrata; conditions: Nakaseomyces glabratus, growth reduced to 50% of untreated control
Description: (§1) The minimal inhibitory concentration (MIC) was determined following the standard Clinical and Laboratory Standards Institute (CLSI) protocol M27 (Rex JH, and Clinical and Laboratory Standards Institute (2008). Reference method for broth dilution antifungal susceptibility testing of yeasts: approved standard, 3rd ed. National Committee for Clinical Laboratory Standards, Wayne, Pa.) for yeast strains or the standard CLSI protocol […] (Clinical and Laboratory Standards Institute (2008). Reference method for broth dilution antifungal susceptibility testing of filamentous fungi. Clinical and Laboratory Standards Institute, Wayne, Pa.) for filamentous fungi. For yeast strains media was inoculated with an overnight culture to an OD600 of 0.001 (1^04 cells/mL). Serial dilutions of substances were added and cells were incubated at 37° C. without shaking for 48±1 h. MIC tests were performed in flat-bottom 96 well plates (Greiner Bio One, Austria) using 100 μL suspension per well sealed with gas-permeable foils. After incubation, OD490 values were measured using 96-well plate reader and growth capacity was analyzed by setting the corresponding control to 100%. Different flavones were randomly chosen and tested for their effects on planktonic cells and biofilms of C. albicans and C. glabrata to determine corresponding IC50 values (the concentration that is required to reduce growth (minimal inhibitory concentration=MIC) or biofilm formation (biofilm inhibitory concentration=BIC) to 50% compared to the untreated control).

C. glabrata biofilm = test: Biofilm inhibition concentration (XTT); assay type: cell-based, Candida glabrata; conditions: Nakaseomyces glabratus, read-out: BIC50
Description: (§2) In short, RPMI medium was inoculated with an overnight culture to an OD (optical density) of 0.1, transferred to a U-bottom 96-well plate (MLS, Belgium) and treated with serial dilutions of substances. After the adherence phase (1 h, 37° C.), supernatant was removed, adherent cells were washed with PBS and fresh media (including substances) was added. Biofilms were then allowed to grow for 24 h at 37° C. Formed biofilms were then analyzed for their metabolic activity. Therefore, C. albicans biofilm cells were treated with CTB (cell titer Blue®; Promega, Germany), diluted 1:100 in PBS. […] Sigma, Germany or ABCR, Germany) was used instead. Thereby, biofilm cells were treated with an XTT solution (0.25 mg/mL XTT+0.1 μM menadione in PBS) at 37° C. in the dark and OD490 was measured.

C. albicans [1] = test: Checkerboard / combination assay, growth of planktonic cells (OD490); assay type: cell-based, Candida albicans; conditions: for antimycotic effect in combination with other known antimycotics: FIGS. 6 and 7; for effect on antifungal activity of azole antifungals (growth, OD490): flavone 6.25-25 μM with 0.1 μM miconazole or 1 μM fluconazole
Description: The minimal inhibitory concentration (MIC) was determined following the standard Clinical and Laboratory Standards Institute (CLSI) protocol M27 (Rex JH, and Clinical and Laboratory Standards Institute (2008). Reference method for broth dilution antifungal susceptibility testing of yeasts: approved standard, 3rd ed. National Committee for Clinical Laboratory Standards, Wayne, Pa.) for yeast strains or the standard CLSI protocol M38 (Clinical and Laboratory Standards Institute (2008). Reference method for broth dilution antifungal susceptibility testing of filamentous fungi. Clinical and Laboratory Standards Institute, Wayne, Pa.) for filamentous fungi.
For yeast strains media was inoculated with an overnight culture to an OD600 of 0.001 (1^04 cells/mL). Serial dilutions of substances were added and cells were incubated at 37° C. without shaking for 48±1 h.
MIC tests were performed in flat-bottom 96 well plates (Greiner Bio One, Austria) using 100 μL suspension per well sealed with gas-permeable foils. After incubation, OD490 values were measured using 96-well plate reader and growth capacity was analyzed by setting the corresponding control to 100%.
For synergy testing of different combinations, checkerboard assays were performed. Therefore, serial dilutions of two different compounds were combined for MIC, BIC or BEC testing as described above. Antifungal activity of substances alone or in combination was determined by setting the corresponding control to 100%.

C. albicans [2] = test: Minimal inhibitory concentration, planktonic cells (CLSI M27); assay type: cell-based; conditions: Candida albicans, growth reduced to 50% of untreated control
Description: as §1

C. albicans biofilm = test: Biofilm inhibition concentration (CTB staining); assay type: cell-based; conditions: Candida albicans; C. albicans biofilm formation reduced to 50% of untreated control; read-out: BIC50
Description: as §2, with “The biofilm inhibition concentration (BIC) was determined as described in […] et al. (J Antimicrob Chemother 69(2014): 1035-1044). In” for “In”, “PBS. After incubation for 1 h at 37° C. in the dark fluorescence intensity was measured using a 96-well plate reader (Ex: 535, Em: 590, sens 65).” for “PBS.”, “measured. As for MIC, biofilm inhibition was analyzed by setting the corresponding control to 100%. Different flavones were randomly chosen and tested for their effects on planktonic cells and biofilms of C. albicans and C. glabrata to determine corresponding IC50 values (the concentration that is required to reduce growth (minimal inhibitory concentration=MIC) or biofilm formation (biofilm inhibitory concentration=BIC) to 50% compared to the untreated control).” for “measured.”

C. albicans SC5314 = test: C. elegans infection model, worm survival; assay type: in vivo
Description: The C. elegans Δglp-4 Δsek-1 strain (generously provided by Valerie Defraine, Centre of Microbial and Plant Genetics, KU Leuven, Belgium) was used for in vivo testing of antifungal activity. Worms were maintained on NGM plates (nematode growth medium; 2.5 g/L Bacto Peptone, 3 g/L NaCl, 17 g/L agar, supplemented with 5 mg/L cholesterol, 1 mM CaCl2), 1 mM MgSO4 and 25 mM KPO4 buffer pH 6.0), seeded with a thin layer of E. coli OP50, at 16° C. and worms were chunked onto fresh plates every three to four days.
Egg collecting was performed by bleaching according to Stiernagle T (“Maintenance of C. elegans”. WormBook. doi: 10.1895/wormbook.1.101 (2006)) and Porta-de-la-Riva M et al. JoVE 64(2012): e4019-e4019). In short, adult worms were collected from plates and treated with a bleaching solution (10 mL household bleach+5 mL 5M NaOH), thereby worms disintegrate and eggs are released. After vigorous shaking for 5 min, M9 medium (3 g/L KH2PO4, 6 g/L Na2HPO4, 5 g/L NaCl, supplemented with 1.25 mM MgSO4) was added and worms were immediately put on ice. After three washing steps, residual eggs were incubated in M9 medium over night at 16° C. on a tube roller. The next day, eggs were collected, transferred onto fresh NGM/OP50 plates and incubated at 25° C. for 3-4 days until nematodes have reached the L3/L4 stage prior to infection.
Synchronized (L3/L4 stage) worms were collected, washed three times with M9 media and spotted onto prepared YPD plates with a thin layer of C. albicans SC5314. […]
For efficacy testing of compounds, 750 μL of the worm suspension were transferred into each well of a 24-well plate and substances were added at indicated concentrations (1% DMSO). Nematodes were immediately counted (t0) and survival was monitored over five days post infection by counting living worms.
To verify the antifungal potential of DHF in vivo, the well-established C. elegans infection model (Breger J, et al. (2007) PLOS Pathog. 3(2): e18.) was used. […] Survival of infected as well as non-infected nematodes was monitored daily over the time period of 5 days (FIG. 2A). […]

C. albicans biofilms = test: Checkerboard assay, biofilm inhibition (CTB staining); assay type: cell-based, Candida albicans
Description: The biofilm inhibition concentration (BIC) was determined as described in Delattin N et al. (J Antimicrob Chemother 69(2014): 1035-1044). In short, RPMI medium was inoculated with an overnight culture to an OD (optical density) of 0.1, transferred to a U-bottom 96-well plate (MLS, Belgium) and treated with serial dilutions of substances. After the adherence phase (1 h, 37° C.), supernatant was removed, adherent cells were washed with PBS and fresh media (including substances) was added. Biofilms were then allowed to grow for 24 h at 37° C.
Formed biofilms were then analyzed for their metabolic activity. Therefore, C. albicans biofilm cells were treated with CTB (cell titer Blue®; Promega, Germany), diluted 1:100 in PBS. After incubation for 1 h at 37° C. in the dark fluorescence intensity was measured using a 96-well plate reader (Ex: 535, Em: 590, sens 65). For C. glabrata, XTT (2H-Tetrazolium, 2,3-bis(2-methoxy-4-nitro-5-sulfophenyl)-5-[(phenylamino)carbonyl]-hydroxide; Sigma, Germany or ABCR, Germany) was used instead. Thereby, biofilm cells were treated with an XTT solution (0.25 mg/mL XTT+0.1 μM menadione in PBS) at 37° C. in the dark and OD490 was measured.
For synergy testing of different combinations, checkerboard assays were performed. […] Antifungal activity of substances alone or in combination was determined by setting the corresponding control to 100%.

[3] = C. glabrata biofilm formation reduced to 50% of untreated control

MIC50 (C. glabrata): 15.7 ± 4.1 µM (≈ 3.99 µg/mL)
IC50 (C. glabrata biofilm; [3]): 41.7 ± 9.1 µM
SMILES: O=c1cc(-c2ccccc2)oc2cc(O)c(O)cc12 [6,7-dihydroxyflavone]

SMILES: O=c1cc(-c2ccc(O)c(O)c2)oc2cc(O)ccc12 [3′,4′,7-trihydroxyflavone]
antimycotic effect in combination with other known antimycotics (C. albicans [1]): synergistic antimycotic effect
effect on antifungal activity of azole antifungals (growth, OD490) (C. albicans [1]): enhance the antifungal activity of azole antifungals

MIC50 (C. glabrata): 6.2 ± 0.2 µM (≈ 1.48 µg/mL)
SMILES: O=c1c(O)c(-c2ccccc2)oc2ccccc12 [3-hydroxyflavone]

IC50 (C. glabrata biofilm; [3]): 129 ± 14.2 µM
SMILES: O=c1cc(-c2ccccc2)oc2ccc(O)cc12 [6-hydroxyflavone]

SMILES: O=c1cc(-c2ccccc2)oc2cc(O)ccc12 [7-hydroxyflavone]
IC50 (C. glabrata biofilm): 17.4 ± 7 µM

MIC50 (C. albicans [2]): 254 ± 68.5 µM (≈ 64.7 µg/mL)
MIC50 (C. glabrata): 5.9 ± 0.1 µM (≈ 1.5 µg/mL)
SMILES: O=c1c(O)c(-c2cccc(O)c2)oc2ccccc12 [3,3′-dihydroxyflavone]
IC50 (C. glabrata biofilm; [3]): 21.5 ± 3.6 µM

MIC50 (C. albicans [2]): > 400 µM
IC50 (C. albicans biofilm): > 400 µM
MIC50 (C. glabrata): > 400 µM
IC50 (C. glabrata biofilm; [3]): > 400 µM
SMILES: O=c1cc(-c2ccccc2)oc2cc(O)cc(O)c12 [5,7-dihydroxyflavone, reference compound]

MIC50 (C. albicans [2]): 9.5 ± 0.1 µM (≈ 2.42 µg/mL)
IC50 (C. albicans biofilm): 55.2 ± 8.1 µM
MIC50 (C. glabrata): 7.9 ± 1 µM (≈ 2.01 µg/mL)
SMILES: O=c1c(O)c(-c2ccccc2)oc2ccc(O)cc12 [3,6-dihydroxyflavone]
IC50 (C. glabrata biofilm; [3]): 23.4 ± 9.7 µM
effect on activity of azoles in vivo (worm survival) (C. albicans SC5314; 25 μM 3,6-DHF with 0.125 μM miconazole or 0.5 μM fluconazole, 5 days): enhances the activity of azoles
effect on antifungal activity of AMB in vivo (worm survival) (C. albicans SC5314; 25 μM 3,6-DHF with 0.5 μM AMB, 5 days): enhances the antifungal activity of AMB
worms still alive at day 5 post infection (C. albicans SC5314; 50 μM DHF, single application immediately after infection, infected control 20.5%): 45.7%
effect on activity of caspofungin, growth of planktonic cells (C. albicans [1]; 4.9 nM Caspo, 5 μM 3,6-DHF, preliminary data): enhances the activity of Caspofungin
effect on activity of azoles in vitro (growth inhibition) (C. albicans [1]; 3.1 μM 3,6-DHF with 0.4 μM miconazole or 0.5 μM fluconazole): enhances the activity of azoles
effect on activity of caspofungin, biofilm formation (C. albicans biofilms; 39 nM Caspo, 3.1 μM 3,6-DHF): enhances the activity of Caspofungin
combination with AMB on biofilms in vitro (C. albicans biofilms; 0.16 μM AMB, 25 μM 3,6-DHF): acts synergistically with AMB

MIC50 (C. glabrata): 53.9 ± 2.1 µM (≈ 13.7 µg/mL)
IC50 (C. glabrata biofilm; [3]): 124 ± 34.7 µM
SMILES: O=c1c(O)c(-c2ccccc2O)oc2ccccc12 [2′,3-dihydroxyflavone]

IC50 (C. glabrata biofilm; [3]): 26.7 ± 3 µM
SMILES: O=c1cc(-c2cccc(O)c2)oc2ccccc12 [3′-hydroxyflavone]

IC50 (C. albicans biofilm): 147 ± 17.3 µM
SMILES: O=c1cc(-c2ccc(O)c(O)c2)oc2ccccc12 [3′,4′-dihydroxyflavone]
effect on antifungal activity of antimycotics (growth, OD490) (C. albicans [1]; 12.5-25 μM 3′,4′-DHF with miconazole, fluconazole, ketoconazole or clotrimazole): enhances the antifungal activity of antimycotics
antimycotic effect in combination with other known antimycotics (C. albicans [1]): synergistic antimycotic effect

SMILES: O=c1c(O)c(-c2ccccc2)oc2cc(O)ccc12 [3,7-dihydroxyflavone]
IC50 (C. glabrata biofilm): 62.5 ± 26 µM

MIC50 (C. albicans [2]): > 400 µM
IC50 (C. albicans biofilm): > 400 µM
MIC50 (C. glabrata): > 400 µM
IC50 (C. glabrata biofilm; [3]): > 400 µM
SMILES: O=c1cc(-c2ccc(O)cc2)oc2cccc(O)c12 [4′,5-dihydroxyflavone, reference compound]

SMILES: O=c1cc(-c2ccc(O)c(O)c2)oc2cc(O)cc(O)c12 [luteolin, 3′,4′,5,7-tetrahydroxyflavone]
antimycotic effect in combination with other known antimycotics (C. albicans [1]): synergistic antimycotic effect
effect on antifungal activity of azole antifungals (growth, OD490) (C. albicans [1]): enhance the antifungal activity of azole antifungals
